Data as given in article PMC3605511, “Tumor P-Glycoprotein Correlates with Efficacy of PF-3758309 in in vitro and in vivo Models of Colorectal Cancer” (Frontiers in Pharmacology, 2013).

Columns and labels:
[1] = tested on: DLD1 Scr; assay: Proliferation, control shRNA, DLD1 Scr; type: cell-based; conditions: Homo sapiens, DLD-1; DLD1 Scr:50, control shRNA
Method: (§1) Cytotoxic/proliferation effects were determined using the sulforhodamine B (SRB) assay (Skehan et al., [1990]) or by resazurin. Briefly, cells in logarithmic growth phase were transferred to 96 well flat bottom plates with lids. One-hundred microliter cell suspensions containing 1500–5000 viable cells were plated into each well and incubated overnight prior to exposure with increasing concentrations of PF-309 for 3–5 days, dependent upon cell type. Media was removed and cells were fixed with cold 10% trichloroacetic acid for 30 min at 4°C. Cells were then washed with water and stained with 0.4% SRB (Fisher Sci., Pittsburgh, PA, USA) for 30 min at room temperature, washed again with 1% acetic acid, followed by stain solubilization with 10 mM tris at room temperature. The plate was then read on a plate reader (Biotek Synergy 2, Winooski, VT, USA) set at an absorbance wavelength of 565 nm. Cell proliferation curves were derived from the raw absorbance (OD) data.
(§2) The pGIPZ Pgp-specific shRNA expression cassettes, along with control shRNA plasmids including the original pGIPZ vector were purchased from Open Biosystems (Birmingham, AL, USA). […] Successful knockdown of specific genes and gene products was confirmed by semi-quantitative RT-PCR and immunoblotting with specific antibodies. […]

[2] = tested on: SW1463; assay: Cell proliferation assay, SW1463; type: cell-based; conditions: Homo sapiens; SW1463, PF-309 alone, 72 h; 1 uM was the maximum concentration used
Method: as §1
(§3) Since PF-309 appeared to be a strong P-gp and BCRP substrates, we sought to evaluate if the transporters influenced sensitivity in vitro. We evaluated the sensitivity of CRC cell lines to PF-309 treatment in a panel of 27 lines. Cells were exposed to PF-309 at a range of concentrations for 72 h and cell content measured by SRB assay (see Pitts et al., [2013]). […]

[3] = tested on: DLD1 PgP_KD1; assay: Proliferation after shRNA knockdown of P-gp, DLD1 PgP_KD1; type: cell-based; conditions: Homo sapiens, DLD-1; DLD1 PgP_KD1:50, P-gp shRNA knockdown
Method: as §1, §2

[4] = tested on: HCT15 cell line xenograft; assay: CRC cell line xenograft efficacy, HCT15; type: in vivo, mice; conditions: 25 mg/kg orally twice daily, 14–28 days, end of study tumor volumes
Method: (§4) For cell line xenografts, CRC cells were harvested in exponential phase growth and resuspended in a 1:1 mixture of serum-free RPMI 1640 and Matrigel (BD Biosciences). Five to ten million cells per mouse were injected subcutaneously into the flank using a 23-gauge needle. Mice were monitored daily for signs of toxicity and were weighed twice weekly. Tumor size was evaluated twice per week by caliper measurements using the following formula: tumor volume = length × width^2 × 0.52. When tumors reached 200–300 mm^3 mice were randomized into two groups with at least 10 tumors per group. Mice were then treated for 14–28 days (until control tumor volume reach ∼1500 mm^3) with either vehicle control (0.5% methylcellulose), or PF-3758309 (25 mg/kg) twice daily by oral gavage.
(§5) Human tumor xenograft models were used to evaluate the efficacy of PF-309 in vivo. Eleven different CRC cell line tumor xenografts were treated with 25 mg/kg PF-309 twice daily by oral gavage for 14–28 days (until control tumor volumes reached ∼1500 mm^3). Tumor volumes were measured throughout the study and the % growth inhibition was calculated from the average end of study tumor volumes by:
(§6) % Growth Inhibition= (average control volume−average treated volume)/average control volume×100%

[5] = tested on: CRC cell lines; assay: Proliferation assays with and without P-gp inhibitor CP-100356, subset of CRC cell lines; type: cell-based, human; conditions: 0.625 μM CP-100356; five out of the six CRC cell lines
Method: Cytotoxic/proliferation effects were determined using the sulforhodamine B (SRB) assay (Skehan et al., [1990]) or by resazurin. Briefly, cells in logarithmic growth phase were transferred to 96 well flat bottom plates with lids. […] Media was removed and cells were fixed with cold 10% trichloroacetic acid for 30 min at 4°C. Cells were then washed with water and stained with 0.4% SRB (Fisher Sci., Pittsburgh, PA, USA) for 30 min at room temperature, washed again with 1% acetic acid, followed by stain solubilization with 10 mM tris at room temperature. The plate was then read on a plate reader (Biotek Synergy 2, Winooski, VT, USA) set at an absorbance wavelength of 565 nm. Cell proliferation curves were derived from the raw absorbance (OD) data.

[6] = tested on: SW948; assay: Cell proliferation assay, SW948; type: cell-based; conditions: Homo sapiens; SW948, 72 h, SRB assay
Method: as §1, §3

[7] = tested on: CRC, breast, and non-small cell lung cancer cell lines; assay: Proliferation by resazurin, expanded panel of 71 cell lines; type: cell-based; conditions: Homo sapiens, printed over a group of bars, cell lines covered not named
Method: as §1, §3

[8] = tested on: GEO; assay: Cell proliferation assay, GEO; type: cell-based; conditions: Homo sapiens, 72 h, SRB assay
Method: as §1, §3

[9] = tested on: GEO cell line xenograft; assay: CRC cell line xenograft efficacy, GEO; type: in vivo, mice; conditions: 25 mg/kg orally twice daily, 14–28 days, end of study tumor volumes
Method: as §4, §5, §6

[10] = tested on: SW480 cell line xenograft; assay: CRC cell line xenograft efficacy, SW480; type: in vivo, mice; conditions: 25 mg/kg orally twice daily, 14–28 days, end of study tumor volumes
Method: as §4, §5, §6

[11] = tested on: SW1116; assay: Cell proliferation assay, SW1116; type: cell-based; conditions: Homo sapiens, SW 1116; SW1116, 72 h, SRB assay
Method: as §1, §3

[12] = tested on: DLD-1; assay: Cell proliferation assay, DLD-1; type: cell-based, human
Method: as §1
In a subset of CRC cell lines, western blotting, and rhodamine efflux was used to verify the expression and function of P-gp. Consistent with the gene expression data, the sensitive cell lines, RKO, HCT116, and Colo205 show no P-gp expression and no functional P-gp, and the resistant lines, SW948, HCT15, and SW1116 express functional P-gp (Figures 3A,B). […]

[13] = tested on: COLO205; assay: Cell proliferation assay, COLO205; type: cell-based; conditions: Homo sapiens, COLO 205; COLO205, 72 h, SRB assay
Method: as §1, §3

## Cc1nc(Nc2n[nH]c3c2CN(C(=O)N[C@H](CN(C)C)c2ccccc2)C3(C)C)c2sccc2n1 [PF-309]
[1]
  IC50: 103 nM
[2]
  IC50: > 1000 nM
[3]
  IC50: 26 nM
[4]
  % Growth inhibition: 18%
[5]
  fold change in the IC50 of PF-309 caused by CP-100356: 4–100 fold
[6]
  IC50: > 1000 nM
[7]
  IC50: > 100 nM
[8]
  IC50: > 1000 nM
[9]
  % Growth inhibition: 42%
[10]
  % Growth inhibition: 42%
[11]
  IC50: > 1000 nM
[12]; DLD-1 cells, P-gp knockdown vs control shRNA
  shift in the IC50 by shRNA knockdown of P-gp: four to six fold
[12]; Homo sapiens, DLD-1, PF-309 alone, 72 h
  IC50: 278 nM
[13]
  IC50: 4.2 ± 1.4 nM
